Results as given in ChEMBL document CHEMBL1201862, “PubChem BioAssay data set” (2004).
Activity calls are given as the source filed them.

Columns and labels:
[1] = molecular target: T1, Ubiquitin-conjugating enzyme E2 N (Homo sapiens, UniProt P61088); assay type: functional;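 note: Dose-response confirmation in a TR-FRET assay detecting UBC13-driven polyubiquitin chain formation, inhibition measured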
T1 sequence (P61088 whole entry): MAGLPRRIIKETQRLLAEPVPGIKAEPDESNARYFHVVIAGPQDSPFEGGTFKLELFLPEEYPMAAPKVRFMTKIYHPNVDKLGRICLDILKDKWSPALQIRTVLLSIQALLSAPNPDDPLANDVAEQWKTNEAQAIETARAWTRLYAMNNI

[2] = molecular target: T2, Calpain-2 catalytic subunit (Sus scrofa, UniProt P43367); experiment: m-calpain protease blockers, concentration series – biochemical, fluorogenic peptide substrate, dose response (AID 1420); assay type: functional
T2 sequence (P43367 whole entry): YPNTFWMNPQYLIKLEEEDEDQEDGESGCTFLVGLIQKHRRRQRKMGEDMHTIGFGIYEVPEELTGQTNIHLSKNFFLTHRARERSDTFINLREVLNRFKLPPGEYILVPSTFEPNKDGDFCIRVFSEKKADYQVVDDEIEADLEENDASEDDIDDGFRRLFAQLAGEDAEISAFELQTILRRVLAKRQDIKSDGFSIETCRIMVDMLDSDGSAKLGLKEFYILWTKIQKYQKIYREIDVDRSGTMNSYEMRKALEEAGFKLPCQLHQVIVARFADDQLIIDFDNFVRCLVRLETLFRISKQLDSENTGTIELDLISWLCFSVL

[3] = Luminescence Cell-Based Dose Retest to Confirm Inhibitors of Cancer Stem Cells. [Related pubchem assays (depositor defined):AID2717, AID2721]; assay type: functional; conditions: Homo sapiens
[4] = tested on: P388/ADR; experiment: cells; assay type: functional; conditions: Mus musculus
[5] = tested on: SN12K1; experiment: cells; assay type: functional; conditions: Homo sapiens
[6] = tested on: P388; experiment: cells; assay type: functional; conditions: Mus musculus
[7] = tested on: Streptococcus sp. 'group A'; experiment: Streptococcus pyogenes SK(-)GAS viability under kanamycin – luminescence, BacTiterGlo, confirmation, counter-screen for streptokinase expression inhibitor project, dose response (AID 1900); assay type: functional, organism-based
[8] = cells; assay type: functional, cell-based
[9] = cells; assay type: functional, cell-based; remark: listed apart in the source
[10] = tested on: Streptococcus; experiment: GAS UMAA2166 growth inhibition – luminescence, BacTiterGlo, counter-screen for streptokinase expression inhibitor project, dose response (AID 1915); assay type: functional, organism-based;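 note: potency for reduction of bacterial viability or growth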
[11] = tested on: INS1; experiment: INS-1E survival protection against cytokine death – cell-based, luminescence, retest, dose response (AID 449756); assay type: functional; conditions: Rattus norvegicus;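 note: cell death triggered by IL-1 beta plus TNF-alpha plus IFN-gamma mixture; protective hits raise ATP signal compared with cytokine alone wells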
[12] = NIH-3T3 fibroblast cytotoxicity, dose response, cytotoxicity control, cell-based, fluorescence, Alamar Blue, secondary assay (AID 2327); assay type: functional;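 note: NIH-3T3 mouse fibroblasts cultured with fluconazole at 8 µg/mL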
[13] = fluconazole-exposed Candida albicans growth modulators – fluorescence, retest, confirmation (AID 2467); assay type: functional, cell-based
[14] = molecular target: Induced myeloid leukemia cell differentiation protein Mcl-1 (Homo sapiens, UniProt Q07820); assay type: functional
Chain of Induced myeloid leukemia cell differentiation protein Mcl-1 (Q07820 whole entry): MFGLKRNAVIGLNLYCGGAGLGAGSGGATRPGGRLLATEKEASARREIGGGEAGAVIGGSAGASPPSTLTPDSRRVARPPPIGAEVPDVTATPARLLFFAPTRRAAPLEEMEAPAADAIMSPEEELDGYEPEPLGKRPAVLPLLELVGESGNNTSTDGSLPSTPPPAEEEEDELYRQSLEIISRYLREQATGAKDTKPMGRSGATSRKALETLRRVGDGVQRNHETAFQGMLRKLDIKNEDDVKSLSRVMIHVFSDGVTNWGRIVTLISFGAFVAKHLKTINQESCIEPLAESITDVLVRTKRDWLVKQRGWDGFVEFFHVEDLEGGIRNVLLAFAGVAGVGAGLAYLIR

[15] = molecular target: T3, Heat shock factor protein 1 (Mus musculus, UniProt P38532); experiment: enhancement of HSF1-driven luciferase signal – cell-based, NIH3T3, luminescence, dose retest, confirmation (AID 435004); assay type: functional;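 note: stress induced by proteasome inhibitor MG132 added 30 min after compound; luciferase reporter driven by HSF1 response element in NIH3T3 cells; actives raise luminescence as potentiators of the MG132 stress response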
T3 sequence (P38532 whole entry): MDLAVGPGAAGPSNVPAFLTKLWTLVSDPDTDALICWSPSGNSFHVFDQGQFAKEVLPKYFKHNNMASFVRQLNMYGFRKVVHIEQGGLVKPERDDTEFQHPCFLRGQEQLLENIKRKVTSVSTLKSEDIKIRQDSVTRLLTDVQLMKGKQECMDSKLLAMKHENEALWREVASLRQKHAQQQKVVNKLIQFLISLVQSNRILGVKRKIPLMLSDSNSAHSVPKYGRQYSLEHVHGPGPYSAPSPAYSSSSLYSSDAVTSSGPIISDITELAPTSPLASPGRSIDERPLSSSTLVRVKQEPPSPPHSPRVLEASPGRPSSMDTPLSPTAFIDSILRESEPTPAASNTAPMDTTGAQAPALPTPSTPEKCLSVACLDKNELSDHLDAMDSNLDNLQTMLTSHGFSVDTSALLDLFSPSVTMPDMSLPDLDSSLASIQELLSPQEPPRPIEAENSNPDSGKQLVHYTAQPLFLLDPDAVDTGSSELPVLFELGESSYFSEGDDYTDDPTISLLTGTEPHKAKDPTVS

[16] = molecular target: T4, Rac GTPase-activating protein 1 (Homo sapiens, UniProt Q9H0H5); experiment: blockers of MgcRacGAP-driven Rac1 GTP hydrolysis – biochemical, ADP Hunter fluorescence, primary and confirmatory, confirmation (AID 624330); assay type: functional
T4 sequence (Q9H0H5 whole entry): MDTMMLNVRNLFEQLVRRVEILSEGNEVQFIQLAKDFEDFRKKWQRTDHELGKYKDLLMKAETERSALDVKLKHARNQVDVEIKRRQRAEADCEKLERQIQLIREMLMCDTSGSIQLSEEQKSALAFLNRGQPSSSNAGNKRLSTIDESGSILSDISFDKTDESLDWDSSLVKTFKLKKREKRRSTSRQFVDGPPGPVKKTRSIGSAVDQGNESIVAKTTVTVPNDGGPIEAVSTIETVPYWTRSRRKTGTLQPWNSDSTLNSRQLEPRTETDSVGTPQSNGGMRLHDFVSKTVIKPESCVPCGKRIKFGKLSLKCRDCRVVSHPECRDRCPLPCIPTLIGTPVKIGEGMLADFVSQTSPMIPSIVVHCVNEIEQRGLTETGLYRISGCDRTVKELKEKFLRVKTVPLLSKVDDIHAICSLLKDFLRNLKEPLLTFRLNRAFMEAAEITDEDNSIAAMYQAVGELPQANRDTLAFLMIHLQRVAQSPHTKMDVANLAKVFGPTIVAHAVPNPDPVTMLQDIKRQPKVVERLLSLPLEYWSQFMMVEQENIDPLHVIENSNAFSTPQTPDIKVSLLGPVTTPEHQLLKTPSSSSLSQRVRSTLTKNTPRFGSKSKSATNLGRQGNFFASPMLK

[17] = molecular target: T5, Polyadenylate-binding protein 1 (Homo sapiens, UniProt P11940); experiment: MLLE binding blockers, Cy5 peptide tracer – biochemical, fluorescence polarization, Cy5-PAM2 peptide, secondary, miRNA deadenylation inhibitor project, dose response (AID 602260); assay type: functional; conditions: read-out: IC50_Mean
T5 sequence (P11940 whole entry, the tested form may be a part): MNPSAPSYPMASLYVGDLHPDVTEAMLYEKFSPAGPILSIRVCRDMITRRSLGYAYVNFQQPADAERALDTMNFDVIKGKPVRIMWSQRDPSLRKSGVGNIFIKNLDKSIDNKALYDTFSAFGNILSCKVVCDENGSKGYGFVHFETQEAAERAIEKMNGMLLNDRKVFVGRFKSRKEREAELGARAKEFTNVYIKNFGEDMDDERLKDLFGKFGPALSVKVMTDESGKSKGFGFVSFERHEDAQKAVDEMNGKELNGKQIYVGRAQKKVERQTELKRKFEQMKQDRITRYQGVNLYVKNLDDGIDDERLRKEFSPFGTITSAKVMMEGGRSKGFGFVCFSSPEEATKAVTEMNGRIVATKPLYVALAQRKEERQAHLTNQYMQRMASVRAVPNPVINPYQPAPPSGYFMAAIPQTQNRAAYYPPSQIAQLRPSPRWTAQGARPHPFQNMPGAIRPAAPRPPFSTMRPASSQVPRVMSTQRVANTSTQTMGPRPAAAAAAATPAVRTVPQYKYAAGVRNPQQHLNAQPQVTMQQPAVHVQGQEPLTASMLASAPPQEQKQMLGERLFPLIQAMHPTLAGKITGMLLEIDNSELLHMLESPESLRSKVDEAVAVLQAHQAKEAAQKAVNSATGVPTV

[18] = molecular target: T5, Polyadenylate-binding protein 1; experiment: MLLE domain peptide-binding blockers, IC50 – biochemical, fluorescence polarization, FITC-PAM2 peptide, dose response (AID 602259); assay type: functional; conditions: read-out: IC50_Mean
[19] = luciferase reporter signal suppression in cells – H4 neuroglioma cells, luminescence, dose response (AID 1990); assay type: functional, cell-based
[20] = Luminescence Cell-Based Dose Response HTS to Identify Inhibitors of 5'UTR Stem-Loop Driven Prion Protein mRNA Translation in H4 Neuroglioblastoma Cells. [Related pubchem assays: 1827 (Project Summary), 1813 (Primary HTS)]; assay type: functional
[21] = alpha-synuclein stem-loop luciferase translation blockers – H4 neuroglioma cells, luminescence, confirmation (AID 1988); assay type: functional, cell-based

SMILES: Cc1ccc(NC(=O)C[S+]([O-])CC(=O)NCCCc2ccccc2)cc1Cl (stereo not given)
- IC50 [1]: > 20 µM (inactive)

SMILES: CC(=O)c1c(S)nc(-c2ccccc2)nc1N1CCCC1
- IC50 [2]: > 50 µM (not active)

SMILES: Cc1ccc(C(=O)NC(=S)NCc2cccnc2)c(C)c1
- IC50 [2]: > 50 µM (not active)

SMILES: CCCCCc1cc(=O)oc2c(C(CCN3CCCCC3)c3cc(OC)c(OC)c(OC)c3)c(OC)cc(OC)c12 (stereo not given)
- AC50 [3]: 6.58 µM (active)
- IC50 [1]: > 20 µM (inactive)

SMILES: O=C1C=CC(=O)c2c(Cl)ccc(O)c21
- GI50 [4]: 0.344 µM (active)
- GI50 [5]: 25.6 µM (inactive)
- GI50 [6]: 0.499 µM (active)

SMILES: O=C(N/N=C/c1ccccc1O)c1ccc2c(c1)OCO2
- EC50 [7]: 4.24 µM (active)
- EC50 [8]: 101 µM (active)
- EC50 [9]: 12.6 µM (active)
- EC50 [10]: 4.46 µM (active)
- AC50 [11]: 2.58 µM (active)

SMILES: Cc1ccc(OCc2nnc(SCC(=O)c3cccc([N+](=O)[O-])c3)n2C)cc1
- IC50 [2]: 4.87 µM (not active)

SMILES: CCCCC(=O)N1CCN(c2nc3ccc(F)cc3s2)CC1
- EC50 [8]: > 350 µM (not active)
- EC50 [9]: 4.69 µM (active)

SMILES: O=C(c1ccccc1)c1cn(CC(=O)N2CCCc3ccccc32)c2ccccc12
- IC50 [2]: < 0.4 µM (not active)

SMILES: Cc1[nH]n(-c2ccc(C(=O)O)cc2)c(=O)c1CCO
- IC50 [2]: > 50 µM (not active)

SMILES: CCOC(=O)CSc1nc2ccccc2c(=O)n1NC(=O)c1ccccc1
- IC50 [1]: > 20 µM (inactive)

SMILES: ClCc1ccc2ccc3ccc(CCl)nc3c2n1
- GI50 [4]: 0.883 µM (active)
- GI50 [5]: 1.87 µM (inactive)
- GI50 [6]: 1.51 µM (inactive)

SMILES: CC(C)C[C@@H]1CN=C(N)N1C[C@@H]1CCCN1C[C@H](C)N1C[C@@H](Cc2ccccc2)N(CCCC2CCCC2)C1=N
- IC50 [1]: > 20 µM (inactive)

SMILES: C/C(=N\NC(=O)c1cccc(N/N=C(\C)c2cc(O)ccc2O)c1)c1cc(O)ccc1O
- EC50 [12]: 10.8 µM (active)
- EC50 [13]: > 38 µM (not active)
- IC50 [14]: 3.43 µM (active)
- EC50 [15]: > 260 µM (inactive)
- IC50 [16]: 67.8 µM (active)

SMILES: CC1NC(=O)C(C)C(c2ccccc2)N(N=O)C1c1ccccc1 (stereo not given)
- GI50 [4]: 0.933 µM (active)
- GI50 [5]: > 100 µM (inactive)
- GI50 [6]: 21 µM (inactive)

SMILES: Cc1ccc(N2C(=O)N(CC(=O)Nc3cc(C)cc(C)c3)C(=O)C2C)cc1 (stereo not given)
- IC50 [2]: > 50 µM (not active)

SMILES: c1ccc(-c2nnc3sc(-c4cc5ccccc5o4)nn23)cc1
- EC50 [8]: > 350 µM (not active)
- EC50 [9]: > 350 µM (not active)

SMILES: CCOc1ccc(NC(=O)CCCOc2cc(=O)n(C)c3ccccc23)cc1
- IC50 [1]: > 20 µM (inactive)

SMILES: CC[C@@H](C)[C@@H]1CN([C@@H](CN2CCC[C@H]2CN2C(N)=NC[C@H]2CC(C)C)C(C)C)C(=N)N1CCCC1CCCC1
- IC50 [1]: > 20 µM (inactive)

SMILES: CC1=C2C3OC(=O)C(C)C3CCC2(C)C=C/C1=N\c1ccccc1 (stereo not given)
- GI50 [4]: > 100 µM (inactive)
- GI50 [5]: > 100 µM (inactive)
- GI50 [6]: > 100 µM (inactive)

SMILES: COc1ccc2cc1Oc1ccc(cc1)C[C@H]1c3cc(c(OC)cc3CCN1C)Oc1c(OC)c(OC)cc3c1[C@H](C2)N(C)CC3 [FANCHININ]
- GI50 [4]: 3.05 µM (inactive)
- GI50 [5]: 7.06 µM (inactive)
- GI50 [6]: 1.77 µM (inactive)

SMILES: COc1cc(NS(=O)(=O)c2ccc(NC(=S)NC(=O)c3sc4cc(F)ccc4c3Cl)cc2)nc(OC)n1
- IC50 [14]: 4.37 µM (not active)
- IC50 [17]: > 66 µM (inactive)
- IC50 [18]: > 66 µM (inactive)

SMILES: C=C1C(=O)OC2CC1CCC1(C)OC1CCC(C)=CCCC2(C)O (stereo not given)
- GI50 [4]: 0.463 µM (active)
- GI50 [5]: 4.35 µM (inactive)
- GI50 [6]: 1.08 µM (active)

SMILES: CC(O)CCC(=O)c1ccoc1 (stereo not given)
- GI50 [4]: 3660 µM (inactive)
- GI50 [5]: 7230 µM (inactive)
- GI50 [6]: 4940 µM (inactive)

SMILES: Cc1cc(C(=O)NCCN(C)C)c2nc3ccccc3cc2c1
- GI50 [4]: 0.341 µM (active)
- GI50 [5]: 0.519 µM (active)
- GI50 [6]: 0.0418 µM (active)

SMILES: O=[N+]([O-])c1cccc(-c2nc3ccccc3s/c2=N/O)c1
- IC50 [2]: 22 µM (not active)

SMILES: O=C(c1ccccc1)c1ccc2nc(-c3ccco3)c(-c3ccco3)nc2c1
- IC50 [14]: 6.46 µM (active)
- EC50 [15]: 32.3 µM (active)

SMILES: CCCCSc1nc(C)cc(SCC(=O)N/N=C/c2cccc(OC)c2O)n1
- EC50 [19]: 11.6 µM (active)
- EC50 [7]: 2.31 µM (active)
- EC50 [8]: 15 µM (active)
- EC50 [20]: 9.62 µM (active)
- EC50 [21]: 10.2 µM (active)
- EC50 [9]: > 350 µM (not active)
- EC50 [10]: 2.61 µM (active)
- AC50 [3]: 7.03 µM (active)
- EC50 [15]: > 260 µM (inactive)

SMILES: NS(=O)(=O)c1ccc(CCNC(=O)c2cc(-c3ccco3)nc3ccccc23)cc1
- IC50 [1]: > 20 µM (inactive)

SMILES: COc1ccc(-n2ncc(S(=O)(=O)c3ccccc3)c2-c2ccc(Cl)cc2)cc1
- IC50 [2]: 3.23 µM (not active)

SMILES: Cc1nc(=O)n2c(c1C(=O)Nc1ccc(Cl)cc1)NCC2
- GI50 [6]: > 31.6 µM (inactive)

SMILES: CC(C)(C)C1CCC(C(=O)OCC(=O)N2CCN(C(=O)c3ccco3)CC2)CC1 (stereo not given)
- IC50 [2]: 29.8 µM (not active)
